Data taken from ChEMBL document CHEMBL4359861, “Design, synthesis and anti-inflammatory evaluation of 3-amide benzoic acid derivatives as novel P2Y14 receptor antagonists” (Eur J Med Chem, 2019).
In brackets after ≈: the same amount, converted by molar mass. Activity calls are given as the source filed them. The calls are words filed in the database; no cut-off is given here.

Assays:
[1] = tested on: THP-1; test: Inhibition of inflammasome in human THP1 cells assessed as reversal of MSU-induced increase in ASC protein level at 5 to 20 uM pretreated for 1 hr followed by MSU treatment and measured after 12 hrs by Western blot analysis; assay type: functional, cell-based
[2] = Microsomal stability in rat liver microsomes assessed as parent compound remaining at 20 uM measured for 10 to 120 mins in presence of NADPH by LC-MS/MS analysis; assay type: ADME, Microsome
[3] = tested on: THP-1; test: Inhibition of inflammasome in human THP1 cells assessed as reversal of MSU-induced increase in NLRP3 protein level at 5 to 20 uM pretreated for 1 hr followed by MSU treatment and measured after 12 hrs by Western blot analysis; assay type: functional, cell-based
[4] = Solubility of compound in pH 7.4 PBS buffer vortex for 1 min followed by 10 mins sonication and further incubated for overnight under shaking condition by UV-vis absorption spectrometric method; assay type: physicochemical
[5] = tested on: THP-1; test: Inhibition of pyroptosis in human THP1 cells assessed as inhibition of MSU-induced increase in caspase1 level at 5 to 20 uM pretreated for 1 hr followed by MSU treatment and measured after 12 hrs by PI staining based flow cytometric analysis; assay type: functional, cell-based
[6] = Microsomal stability in human liver microsomes assessed as parent compound remaining at 20 uM measured for 10 to 120 mins in presence of NADPH by LC-MS/MS analysis; assay type: ADME, Microsome
[7] = tested on: THP-1; test: Inhibition of inflammasome in human THP1 cells assessed as reversal of MSU-induced increase in caspase1 p20 protein level at 5 to 20 uM pretreated for 1 hr followed by MSU treatment and measured after 12 hrs by Western blot analysis; assay type: functional, cell-based
[8] = molecular target: T1, P2Y purinoceptor 14 (Homo sapiens) (UniProt Q15391); test: Inhibition of P2Y14 in human THP1 cells assessed as reversal of MSU-induced reduction in cAMP production at 5 to 20 uM pretreated for 1 hr followed by MSU treatment and measured after 12 hrs by ELISA; assay type: functional, cell-based
T1 sequence (whole entry): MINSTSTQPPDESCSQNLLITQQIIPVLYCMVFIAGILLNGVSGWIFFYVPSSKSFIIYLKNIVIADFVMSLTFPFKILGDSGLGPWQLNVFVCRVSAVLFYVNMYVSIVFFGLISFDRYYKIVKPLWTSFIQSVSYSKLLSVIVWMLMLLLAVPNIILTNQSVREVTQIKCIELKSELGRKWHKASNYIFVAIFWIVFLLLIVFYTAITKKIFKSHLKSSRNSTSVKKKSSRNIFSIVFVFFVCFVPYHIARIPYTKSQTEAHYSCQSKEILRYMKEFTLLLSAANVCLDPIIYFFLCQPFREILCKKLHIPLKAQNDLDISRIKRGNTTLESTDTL

[9] = tested on: THP-1; test: Inhibition of inflammasome in human THP1 cells assessed as reversal of MSU-induced co-localization of NLRP3 at 5 to 20 uM pretreated for 1 hr followed by MSU treatment and measured after 12 hrs by DAPI staining based confocal laser scanning microscopic method; assay type: functional, cell-based
[10] = tested on: THP-1; test: Inhibition of pyroptosis in human THP1 cells assessed as inhibition of MSU-induced increase in IL-1beta level at 5 to 20 uM by ELISA; assay type: functional, cell-based
[11] = molecular target: T2, P2Y purinoceptor 14 (Homo sapiens, UniProt Q15391); test: Antagonist activity at human P2Y14R stably expressed in human forskolin treated THP1 cells assessed as reduction in P2Y14R agonist UDPG-induced inhibition of cAMP production incubated for 15 mins by competitive enzyme-linked immunoassay; assay type: functional, cell-based
T2 sequence (Q15391 whole entry): T1 sequence (whole entry)

[12] = Ratio of solubility for test compound to solubility for PPTN; assay type: physicochemical
[13] = tested on: THP-1; test: Inhibition of inflammasome in human THP1 cells assessed as reversal of MSU-induced co-localization of NLRP3 at 10 uM pretreated for 1 hr followed by MSU treatment and measured after 12 hrs by DAPI staining based confocal laser scanning microscopic method; assay type: functional, cell-based
[14] = tested on: THP-1; test: Inhibition of inflammasome in human THP1 cells assessed as reversal of MSU-induced increase in ASC protein level at 10 uM pretreated for 1 hr followed by MSU treatment and measured after 12 hrs by Western blot analysis; assay type: functional, cell-based
[15] = tested on: THP-1; test: Inhibition of pyroptosis in human THP1 cells assessed as inhibition of MSU-induced increase in IL-1beta level at 10 uM by ELISA; assay type: functional, cell-based
[16] = tested on: THP-1; test: Inhibition of inflammasome in human THP1 cells assessed as reversal of MSU-induced increase in caspase1 p20 protein level at 10 uM pretreated for 1 hr followed by MSU treatment and measured after 12 hrs by Western blot analysis; assay type: functional, cell-based
[17] = tested on: THP-1; test: Inhibition of inflammasome in human THP1 cells assessed as reversal of MSU-induced increase in NLRP3 protein level at 10 uM pretreated for 1 hr followed by MSU treatment and measured after 12 hrs by Western blot analysis; assay type: functional, cell-based
[18] = tested on: THP-1; test: Inhibition of pyroptosis in human THP1 cells assessed as inhibition of MSU-induced increase in caspase1 level at 10 uM pretreated for 1 hr followed by MSU treatment and measured after 12 hrs by PI staining based flow cytometric analysis; assay type: functional, cell-based

Q: With Cc1ccc(C(=O)Nc2cc(C(=O)O)cc(-c3ccc(C4CCNCC4)cc3)c2)cc1 as the molecule, how does the inhibition [1] read?
A: Its inhibition is “Active”.

Q: And the half-life at 20 µM [2]?
A: Its half-life at 20 µM is over 1 h.

Q: What about the inhibition [3] of the same molecule?
A: The inhibition was “Active”.

Q: What about the solubility thermodynamic [4] of the same molecule?
A: Its solubility thermodynamic is 572 µg/mL (≈ 1380 µM).

Q: What about the inhibition [5] of the same molecule?
A: Its inhibition is “Active”.

Q: And the half-life at 20 µM [6]?
A: Its half-life at 20 µM is over 1 h.

Q: And the inhibition [7]?
A: Its inhibition is “Active”.

Q: What about the inhibition [8] of the same molecule?
A: Its inhibition is “Active”.

Q: What about the inhibition [9] of the same molecule?
A: The inhibition was “Active”.

Q: And the inhibition [10]?
A: The inhibition was “Active”.

Q: What about the IC50 [11] of the same molecule?
A: Its IC50 is 1.77 nM.

Q: And the Ratio [12]?
A: The Ratio was over 100.

Q: With N#Cc1ccc(C(=O)Nc2cc(C(=O)O)cc(-c3ccc(C4CCNCC4)cc3)c2)cc1 as the molecule, how does the IC50 [11] read?
A: The IC50 was 4.54 nM.

Q: Which inhibition [13] does the source give for O=C(O)c1cc(-c2ccc(C3CCNCC3)cc2)c2ccc(-c3ccc(C(F)(F)F)cc3)cc2c1 [PPTN] here?
A: The inhibition was “Active”.

Q: What about the solubility thermodynamic [4] of the same molecule?
A: Its solubility thermodynamic is under 5 µg/mL.

Q: What about the inhibition [14] of the same molecule?
A: Its inhibition is “Active”.

Q: What about the inhibition [15] of the same molecule?
A: The inhibition was “Active”.

Q: And the inhibition [16]?
A: Its inhibition is “Active”.

Q: And the inhibition [17]?
A: Its inhibition is “Active”.

Q: What about the inhibition [18] of the same molecule?
A: The inhibition was “Active”.

Q: For O=C(O)c1cc(NC(=O)c2ccc([N+](=O)[O-])cc2)cc(-c2ccc(C3CCNCC3)cc2)c1, which IC50 [11] is on record?
A: Its IC50 is 5.06 nM.

Q: For O=C(O)c1cc(NC(=O)c2ccccc2)cc(-c2ccc(C3CCNCC3)cc2)c1, which IC50 [11] is on record?
A: Its IC50 is 4.95 nM.

Q: Which IC50 [11] does the source give for O=C(O)c1cc(NC(=O)c2cnccn2)cc(-c2ccc(C3CCNCC3)cc2)c1 here?
A: Its IC50 is 4.35 nM.

Q: For O=C(O)c1cc(NC(=O)c2ccncc2)cc(-c2ccc(C3CCNCC3)cc2)c1, which IC50 [11] is on record?
A: Its IC50 is 3.17 nM.
